Laboratory results: patent US11236129B2, “IL-17A binding peptides and medical uses thereof” (Dompe' Farmaceutici S.P.A., priority 2018, dated 2022)
pIC50, pKd: −log10 of the molar value. Like-named read-outs stand apart in the source and are kept apart here. Residues, ends and D or L forms follow the SMILES beside them.

Legend:
[1] = tested on: human corneal epithelial cells (hCEPIC); test: Permeability test across stratified human corneal epithelial cells; format: in vitro ADME; conditions: for Permeability (Papp): 50 μM, stratified human corneal epithelial cells
Description: (§1) The objective of this study was to evaluate the apparent permeability coefficient (Papp) value of the peptides across stratified human corneal epithelial cells. All peptides were tested at 50 μM in duplicate.
(§2) In particular, human corneal epithelial cells (hCEPIC) were stratified on Transwell cell culture inserts (Corning, N.Y., USA). The permeation experiments were performed taking samples from receiver chambers at 5, 30, 60 minutes time points and from donor chambers at the same time points. Each aliquot collected was analyzed by HPLC instrument (Knauer) equipped with C18 Vertex Plus Column (Knauer) thermostatically controlled at 40° C. The rate (apparent permeability coefficient, Papp) of the study compounds was calculated and compared to the Papp values of the low and high permeability markers, 6-carboxyfluorescein and Rhodamine B, respectively.
(§3) The apparent permeability coefficient (Papp) was calculated according to Equation: Papp=(I/A*C0)(dM/dt)
(§4) where dM/dt is the flux (nanomoles per second) across the cell layers;
(§5) A (square centimeters) is the exposed surface area of the insert membrane;
(§6) C0 is the initial drug concentration (micromolar) in the donor compartment at t=0 (Xiang et al., Drug Metab Dispos. 2009 May; 37(5):992-8.

[2] = as above; format: in vitro ADME
Description: as §1, §2, §3, §4, §5, §6

[3] = format: physicochemical; conditions: pH 7.8
Method in brief: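 Peptides dissolved in phosphate buffer pH 7.8 as 10 mM stocks (more dilute for less soluble ones) and stored at 25 °C. Content measured by reversed-phase UHPLC (C18, 0.5% formic acid water/acetonitrile gradient, DAD 220-400 nm, ESI-MS ion trap) after 1:100 dilution to 100 μM, against 100 μM standards, at T0, 3 days and 1 week.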

[4] = molecular target: IL-17RA/IL17RC dimerization induced by IL-17A (Homo sapiens, UniProt Q16552); test: IL-17RA/IL17RC dimerization assay in response to IL-17A (PathHunter Cytokine Receptor Assay); format: cell-based; conditions: IL-17A at EC80; read-out: IC50 in IL-17RA/IL7RC dimerization assay
Method in brief: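 Receptor dimerization was read as chemiluminescence from complemented β-galactosidase after IL-17A at EC80 concentration for 6–16 h at 37 °C. Peptides were added 60 min before agonist, at 37 °C or room temperature, with 1% vehicle. Percent inhibition used the EC80-stimulated and vehicle wells as references.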

[5] = Isoelectric point, log D and log P (SiriusT3); format: physicochemical; conditions: for IP (isoelectric point): 25±1° C., 0.15 M KCl
mouse IL-17A = molecular target: T1, mouse IL-17A (Mus musculus, UniProt Q62386); test: Peptide-IL-17A affinity test (SPR); format: binding
T1 sequence (Q62386 26-158): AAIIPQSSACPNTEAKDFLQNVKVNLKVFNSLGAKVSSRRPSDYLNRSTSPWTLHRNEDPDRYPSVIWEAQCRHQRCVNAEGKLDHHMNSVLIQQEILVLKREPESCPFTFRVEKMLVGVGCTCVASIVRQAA
Description: The peptide of the prior art HAP (SEQ ID NO:1) and peptide of SEQ ID NO:2 were tested for affinity for mIL-17A, as described below. For the immobilization of mouse IL-17A protein, amine coupling chemistry was used. […] Covalent immobilization of mIL17 results in stable attachment of 3000 RU of ligand to the surface. […] The molecules were diluted at different concentrations (from 62.5 to 1000 nM) in HBS-EP buffer and injected on the sensorchip for 4 minutes and allowed to dissociate for 5 minutes. After each run, the sensorchip was regenerated by 2 M NaCl injection. Based on the sensorgrams (FIG. 1, panel A) and using the BIAevaluation software, the Scatchard analysis of the RU values at equilibrium allowed to determine an affinity constant as a function of the analyte concentration in solution (FIG. 6, panel B).

IL-17A = molecular target: T2, IL-17A (Homo sapiens, UniProt Q16552); conditions: psoriasis, clinical trials; cited from earlier work
T2 construct: host or cells: psoriasis patients (endogenous IL-17A)

[6] = octanol/ISA water, read-out: logP
[7] = pH 7.4, pH 7.4, octanol/ISA water, read-out: Log D (7.4)

Sequence of IL-17RA/IL17RC dimerization induced by IL-17A (Q16552 24-155): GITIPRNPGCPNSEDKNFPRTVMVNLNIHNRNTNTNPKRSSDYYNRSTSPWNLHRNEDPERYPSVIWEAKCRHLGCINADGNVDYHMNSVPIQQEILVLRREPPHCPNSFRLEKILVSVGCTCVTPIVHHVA
T2 sequence (Q16552 24-155): as above

Molecule | Papp ([2]; Permeability (Papp)) | solubility [3] | pIC50 [4] | IP (isoelectric point) [5] | logP [5, 6] | logD [5, 7] | further results
CC[C@H](C)[C@H](NC(=O)[C@@H](NC(=O)[C@@H](NC(=O)[C@H](Cc1c[nH]cn1)NC(=O)[C@@H](NC(C)=O)C(C)C)C(C)C)[C@@H](C)O)C(=O)N1CCC[C@H]1C(=O)N[C@@H](C)C(=O)N[C@@H](CC(=O)O)C(=O)N[C@@H](CC(C)C)C(=O)N[C@@H](Cc1c[nH]c2ccccc12)C(=O)N[C@@H](CCC(=O)O)C(=O)N[C@@H](Cc1c[nH]c2ccccc12)C(=O)N[C@@H](Cc1ccccc1)C(=O)N[C@@H](CCCNC(=N)N)C(=O)N[C@@H](CCCNC(=N)N)C(N)=O [SEQ ID NO: 121] (Ac-VHVTIPADLWEWFRR-NH2) | 47.1 ×10⁻⁶ cm/s | < 50 µM | > 6.30 | 8.99 | -0.51 | -1.47 | 
O=C(O)c1ccc2c(c1)C1(OC2=O)c2ccc(O)cc2Oc2cc(O)ccc21 [6-carboxyfluorescein, reference compound] |  |  |  |  |  |  | Permeability (Papp) [1]: 0.61±0.33 10^−6 cm/sec
CC[C@H](C)[C@H](NC(C)=O)C(=O)N[C@@H](Cc1c[nH]cn1)C(=O)N[C@H](C(=O)N[C@H](C(=O)N[C@H](C(=O)N1CCC[C@H]1C(=O)N[C@@H](C)C(=O)N[C@@H](CC(=O)O)C(=O)N[C@@H](CC(C)C)C(=O)N[C@@H](Cc1c[nH]c2ccccc12)C(=O)N[C@@H](CC(=O)O)C(=O)N[C@@H](Cc1c[nH]c2ccccc12)C(=O)N[C@H](C(=O)N[C@@H](CC(N)=O)C(=O)N[C@@H](CCCCN)C(N)=O)[C@@H](C)CC)[C@@H](C)CC)[C@@H](C)O)C(C)C [SEQ ID NO: 1, reference compound] (Ac-IHVTIPADLWDWINK-NH2) | 19.3 ×10⁻⁶ cm/s | > 10000 µM |  |  |  |  | Papp ([2]; Permeability (Papp ± SE)): 19.3 ×10⁻⁶ cm/s; pKd (mouse IL-17A): 5.43; logP ([5]; logP): -5.98; logD ([5]; pH 7.4, Log D (7.4)): -3.68
CCN(CC)c1ccc2c(-c3ccccc3C(=O)O)c3ccc(=[N+](CC)CC)cc-3oc2c1.[Cl-] [Rhodamine B, reference compound] |  |  |  |  |  |  | Permeability (Papp) [1]: 51.26±5.44 10^−6 cm/sec
CC[C@H](C)[C@H](NC(C)=O)C(=O)N[C@@H](Cc1c[nH]cn1)C(=O)N[C@H](C(=O)N[C@H](C(=O)N[C@H](C(=O)N1CCC[C@H]1C(=O)N[C@@H](C)C(=O)N[C@@H](CC(=O)O)C(=O)N[C@@H](CC(C)C)C(=O)N[C@@H](Cc1c[nH]c2ccccc12)C(=O)N[C@@H](CC(=O)O)C(=O)N[C@@H](Cc1c[nH]c2ccccc12)C(=O)N[C@H](C(=O)N[C@@H](CCC(=O)O)C(=O)N[C@@H](CCCCN)C(N)=O)[C@@H](C)CC)[C@@H](C)CC)[C@@H](C)O)C(C)C [SEQ ID NO: 11] (Ac-IHVTIPADLWDWIEK-NH2) | 28 ×10⁻⁶ cm/s | > 10000 µM | > 6.40 | 4.25 |  |  | logP ([5]; logP): 1.05; logD ([5]; pH 7.4, Log D (7.4)): -2.92
secukinumab |  |  |  |  |  |  | patient population with severity of the disease reduced by at least 75% (PASI75) (IL-17A): 80%
ixekizumab |  |  |  |  |  |  | patient population with severity of the disease reduced by at least 75% (PASI75) (IL-17A): 80%

The next lines start with results.

Papp ([2]; Permeability (Papp)) | solubility [3] | pIC50 [4] | IP (isoelectric point) [5] | logP [5, 6] | logD [5, 7] | Molecule | further results
76.8 ×10⁻⁶ cm/s | < 50 µM | > 6.30 | 8.99 | -0.13 | -3.47 | CC[C@H](C)[C@H](NC(=O)[C@H](CCC(N)=O)NC(=O)[C@@H](NC(=O)[C@H](Cc1c[nH]cn1)NC(=O)[C@@H](NC(C)=O)C(C)C)C(C)C)C(=O)N1CCC[C@H]1C(=O)N[C@@H](C)C(=O)N[C@@H](CC(=O)O)C(=O)N[C@@H](CC(C)C)C(=O)N[C@@H](Cc1c[nH]c2ccccc12)C(=O)N[C@@H](CCC(=O)O)C(=O)N[C@@H](Cc1c[nH]c2ccccc12)C(=O)N[C@H](C(=O)N[C@@H](CCCNC(=N)N)C(=O)N[C@@H](CCCNC(=N)N)C(N)=O)C(C)C [SEQ ID NO: 113] (Ac-VHVQIPADLWEWVRR-NH2) | permeability compared to high permeability standard Rhodamine B (in words) [1]: higher permeability compared to Rhodamine B
28.9 ×10⁻⁶ cm/s | > 10000 µM | > 6.40 | 8.99 |  |  | CC[C@H](C)[C@H](NC(C)=O)C(=O)N[C@@H](Cc1c[nH]cn1)C(=O)N[C@H](C(=O)N[C@H](C(=O)N[C@H](C(=O)N1CCC[C@H]1C(=O)N[C@@H](C)C(=O)N[C@@H](CC(=O)O)C(=O)N[C@@H](CC(C)C)C(=O)N[C@@H](Cc1c[nH]c2ccccc12)C(=O)N[C@@H](CC(=O)O)C(=O)N[C@@H](Cc1c[nH]c2ccccc12)C(=O)N[C@H](C(=O)N[C@@H](CCCNC(=N)N)C(=O)N[C@@H](CCCNC(=N)N)C(N)=O)C(C)C)[C@@H](C)CC)[C@@H](C)O)C(C)C [SEQ ID NO: 14] (Ac-IHVTIPADLWDWVRR-NH2) | logP ([5]; logP): -5.4; logD ([5]; pH 7.4, Log D (7.4)): -2.8
68.8 ×10⁻⁶ cm/s | < 50 µM | > 6.30 | 8.99 | -5.94 | -3.91 | CC[C@H](C)[C@H](NC(=O)[C@@H](NC(=O)[C@@H](NC(=O)[C@H](Cc1c[nH]cn1)NC(=O)[C@@H](NC(C)=O)C(C)C)C(C)C)[C@@H](C)O)C(=O)N1CCC[C@H]1C(=O)N[C@@H](CCC(N)=O)C(=O)N[C@@H](CC(=O)O)C(=O)N[C@@H](CC(C)C)C(=O)N[C@@H](Cc1c[nH]c2ccccc12)C(=O)N[C@@H](CCC(=O)O)C(=O)N[C@@H](Cc1c[nH]c2ccccc12)C(=O)N[C@H](C(=O)N[C@@H](CCCNC(=N)N)C(=O)N[C@@H](CCCNC(=N)N)C(N)=O)C(C)C [SEQ ID NO: 115] (Ac-VHVTIPQDLWEWVRR-NH2) | permeability compared to high permeability standard Rhodamine B (in words) [1]: higher permeability compared to Rhodamine B
83.7 ×10⁻⁶ cm/s | < 50 µM | > 6.30 | 8.99 | -0.38 | -0.93 | CC[C@H](C)[C@H](NC(=O)[C@@H](NC(=O)[C@@H](NC(=O)[C@H](Cc1c[nH]cn1)NC(=O)[C@@H](NC(C)=O)C(C)C)C(C)C)[C@@H](C)O)C(=O)N1CCC[C@H]1C(=O)N[C@@H](C)C(=O)N[C@@H](CCC(=O)O)C(=O)N[C@@H](CC(C)C)C(=O)N[C@@H](Cc1c[nH]c2ccccc12)C(=O)N[C@@H](CCC(=O)O)C(=O)N[C@@H](Cc1c[nH]c2ccccc12)C(=O)N[C@H](C(=O)N[C@@H](CCCNC(=N)N)C(=O)N[C@@H](CCCNC(=N)N)C(N)=O)C(C)C [SEQ ID NO: 111] (Ac-VHVTIPAELWEWVRR-NH2) | permeability compared to high permeability standard Rhodamine B (in words) [1]: higher permeability compared to Rhodamine B
 | < 50 µM | > 6.30 | 8.99 | -4.76 |  | CC[C@H](C)[C@H](NC(=O)[C@@H](NC(=O)[C@H](Cc1ccccc1)NC(=O)[C@H](Cc1c[nH]cn1)NC(=O)[C@@H](NC(C)=O)C(C)C)[C@@H](C)O)C(=O)N1CCC[C@H]1C(=O)N[C@@H](C)C(=O)N[C@@H](CC(=O)O)C(=O)N[C@@H](CC(C)C)C(=O)N[C@@H](Cc1c[nH]c2ccccc12)C(=O)N[C@@H](CCC(=O)O)C(=O)N[C@@H](Cc1c[nH]c2ccccc12)C(=O)N[C@H](C(=O)N[C@@H](CCCNC(=N)N)C(=O)N[C@@H](CCCNC(=N)N)C(N)=O)C(C)C [SEQ ID NO: 112] (Ac-VHFTIPADLWEWVRR-NH2) | 
